Experimental data published in the supplement of paper PMC8612539.
Converted amounts (≈) assume the structure as drawn.

Test system: Pasteurella multocida
Assay: minimum inhibitory concentration (MIC)
Description: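 Broth microdilution MIC (Sensititre BOPO7F bovine plate, CLSI methods) of 19 antimicrobials against field isolates of P. multocida, M. haemolytica, H. somni (deep nasopharyngeal swabs) and E. coli, Enterococcus spp. (rectal swabs) from weaned dairy heifers. Incubation 16-24 h at 35 C. MIC is the lowest concentration preventing visible growth. Values with <= or > lie at the tested range limits. Trimethoprim-sulfamethoxazole is given as the trimethoprim component of a 1:19 mixture.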

CCC[C@@H]1C[C@@H](C(=O)N[C@@H]([C@H]2O[C@H](SC)[C@H](O)[C@@H](O)[C@H]2O)[C@H](C)Cl)N(C)C1 [Clindamycin]
Conditions	minimum inhibitory concentration [µg/mL]
isolate (source animal id): 10	> 16
isolate (source animal id): 11	> 16
isolate (source animal id): 12	> 16
isolate (source animal id): 19	> 16
isolate (source animal id): 23	> 16
isolate (source animal id): 26	> 16
isolate (source animal id): 98	> 16
isolate (source animal id): 104	> 16
isolate (source animal id): 115	> 16
isolate (source animal id): 117	> 16
isolate (source animal id): 118	> 16
isolate (source animal id): 121	> 16
isolate (source animal id): 124	> 16
isolate (source animal id): 125	> 16
isolate (source animal id): 128	> 16
isolate (source animal id): 131	> 16
isolate (source animal id): 135	> 16
isolate (source animal id): 136	> 16
isolate (source animal id): 140	> 16
isolate (source animal id): 144	> 16
isolate (source animal id): 146	> 16
isolate (source animal id): 150	> 16
isolate (source animal id): 151	> 16
isolate (source animal id): 153	> 16
isolate (source animal id): 155	> 16
isolate (source animal id): 157	> 16
isolate (source animal id): 160	> 16
isolate (source animal id): 164	> 16
isolate (source animal id): 165	> 16
isolate (source animal id): 167	> 16
isolate (source animal id): 168	> 16
isolate (source animal id): 169	> 16
isolate (source animal id): 170	> 16
isolate (source animal id): 171	> 16
isolate (source animal id): 172	> 16
isolate (source animal id): 173	> 16
isolate (source animal id): 174	> 16
isolate (source animal id): 175	> 16
isolate (source animal id): 176	> 16
isolate (source animal id): 177	> 16
isolate (source animal id): 178	> 16
isolate (source animal id): 179	> 16
isolate (source animal id): 182	> 16
isolate (source animal id): 192	> 16
isolate (source animal id): 193	> 16
isolate (source animal id): 195	8 (≈ 18.8 µM)
isolate (source animal id): 196	> 16
isolate (source animal id): 197	> 16
isolate (source animal id): 198	> 16
isolate (source animal id): 199	> 16
isolate (source animal id): 200	> 16
isolate (source animal id): 201	> 16
isolate (source animal id): 203	> 16
isolate (source animal id): 204	> 16
isolate (source animal id): 205	> 16
isolate (source animal id): 206	> 16
isolate (source animal id): 207	> 16
isolate (source animal id): 208	> 16
isolate (source animal id): 209	> 16
isolate (source animal id): 210	> 16
isolate (source animal id): 213	> 16
isolate (source animal id): 216	> 16
isolate (source animal id): 223	> 16
isolate (source animal id): 227	> 16
isolate (source animal id): 229	> 16
isolate (source animal id): 233	> 16
isolate (source animal id): 234	> 16
isolate (source animal id): 237	> 16
isolate (source animal id): 241	> 16
isolate (source animal id): 245	> 16
isolate (source animal id): 247	> 16
isolate (source animal id): 250	> 16
isolate (source animal id): 254	> 16
isolate (source animal id): 255	> 16
isolate (source animal id): 258	> 16
isolate (source animal id): 261	> 16
isolate (source animal id): 262	> 16
isolate (source animal id): 269	> 16
isolate (source animal id): 270	> 16
isolate (source animal id): 274	> 16
isolate (source animal id): 275	> 16
isolate (source animal id): 276	> 16
isolate (source animal id): 277	> 16
isolate (source animal id): 278	> 16
isolate (source animal id): 279	> 16
isolate (source animal id): 280	> 16
isolate (source animal id): 284	> 16
isolate (source animal id): 285	> 16
isolate (source animal id): 287	> 16
isolate (source animal id): 290	> 16
isolate (source animal id): 294	> 16
isolate (source animal id): 295	> 16
isolate (source animal id): 296	> 16
isolate (source animal id): 307	> 16
isolate (source animal id): 310	> 16
isolate (source animal id): 311	> 16
isolate (source animal id): 312	> 16
isolate (source animal id): 313	> 16
isolate (source animal id): 315	> 16
isolate (source animal id): 316	> 16
